Assay results from the NIST ThermoML archive (doi:10.1021/acs.jced.9b00536).

Test: refractive index (Na D-line) (dimensionless); wn = mass fraction of the nth substance listed
Details: 100 kPa, Liquid, Standard Abbe refractometry

[Na+].[OH-] [sodium hydroxide] + O
refractive index
Details | 283.15 K | 288.15 K | 293.15 K | 298.15 K | 303.15 K | 308.15 K
w1 = 0.2 | 1.3856 | 1.3847 | 1.3838 | 1.3829 | 1.382 | 1.3811
w1 = 0.21 | 1.3875 | 1.3866 | 1.3858 | 1.3849 | 1.384 | 1.3832
w1 = 0.22 | 1.3904 | 1.3895 | 1.3886 | 1.3878 | 1.3869 | 1.386
w1 = 0.23 | 1.3922 | 1.3912 | 1.3903 | 1.3893 | 1.3882 | 1.3874
w1 = 0.24 | 1.3941 | 1.3932 | 1.3923 | 1.3914 | 1.3905 | 1.3896
w1 = 0.25 | 1.3969 | 1.3961 | 1.3952 | 1.3943 | 1.3934 | 1.3925
w1 = 0.26 | 1.3991 | 1.3982 | 1.3974 | 1.3965 | 1.3956 | 1.3947
w1 = 0.27 | 1.4009 | 1.4 | 1.3991 | 1.3982 | 1.3973 | 1.3964
w1 = 0.28 | 1.4028 | 1.4019 | 1.4011 | 1.4002 | 1.3993 | 1.3983
w1 = 0.29 | 1.4053 | 1.4044 | 1.4035 | 1.4026 | 1.4017 | 1.4008
w1 = 0.3 | 1.4066 | 1.4056 | 1.4048 | 1.4038 | 1.4029 | 1.402
w1 = 0.31 | 1.4087 | 1.4077 | 1.4068 | 1.4059 | 1.405 | 1.4041
w1 = 0.32 | 1.4099 | 1.4091 | 1.4081 | 1.4073 | 1.4063 | 1.4055
w1 = 0.33 | 1.4115 | 1.4107 | 1.4097 | 1.4088 | 1.4079 | 1.407
w1 = 0.34 | 1.4141 | 1.4132 | 1.4123 | 1.4114 | 1.4105 | 1.4096
w1 = 0.35 | 1.416 | 1.4151 | 1.4142 | 1.4133 | 1.4123 | –
w1 = 0.36 | 1.4175 | 1.4167 | 1.4158 | 1.4148 | 1.4139 | –
w1 = 0.37 | 1.419 | 1.4181 | 1.4172 | 1.4163 | 1.4154 | –
w1 = 0.38 | 1.4209 | 1.42 | 1.4191 | 1.4182 | 1.4173 | –
w1 = 0.39 | 1.4226 | 1.4217 | 1.4208 | 1.4199 | 1.4189 | –
w1 = 0.4 | 1.4241 | 1.4232 | 1.4223 | 1.4214 | 1.4205 | –
w1 = 0.41 | 1.4252 | 1.4243 | 1.4234 | 1.4225 | 1.4215 | –
w1 = 0.42 | 1.4269 | 1.426 | 1.425 | 1.4241 | 1.4231 | –
w1 = 0.43 | 1.4281 | 1.4272 | 1.4263 | 1.4254 | 1.4245 | –
w1 = 0.44 | 1.4293 | 1.4284 | 1.4274 | 1.4265 | 1.4255 | –
w1 = 0.45 | 1.4303 | 1.4295 | 1.4286 | 1.4276 | 1.4267 | –
w1 = 0.46 | 1.4321 | 1.4312 | 1.4303 | 1.4293 | 1.4284 | –
w1 = 0.47 | 1.4332 | 1.4323 | 1.4314 | 1.4304 | 1.4294 | –
w1 = 0.48 | 1.4347 | 1.4338 | 1.4329 | 1.432 | 1.4311 | –
w1 = 0.49 | 1.4356 | 1.4347 | 1.4338 | 1.4328 | 1.4318 | –
w1 = 0.5 | 1.4365 | 1.4355 | 1.4346 | 1.4337 | 1.4328 | –
